Measurements: ChEMBL document CHEMBL2321701 (J Med Chem, 2013)
Calls of active or inactive are those of the source. No cut-off for these calls is given here.

Columns and labels:
Plasmodium falciparum [1] = assay: microbe, parasite or virus in culture; conditions: K1
[2] = Lipophilicity, log D of the compound at pH 7.4; assay type: physicochemical; conditions: buffer
[3] = Dissociation constant, pKa of the compound; assay type: physicochemical
[4] = Partition coefficient, log P of the compound; assay type: physicochemical; conditions: octanol/water
[5] = Intrinsic clearance in mouse liver microsomes at 1 uM after 60 mins by LC-MS analysis; assay type: ADME, Microsome; conditions: read-out: CLH
Plasmodium falciparum [6] = assay: animal or person; conditions: NF54
[7] = Half life in mouse whole blood; assay type: ADME, tissue-based
Plasmodium falciparum [8] = assay: Antimalarial activity against chloroquine-sensitive Plasmodium falciparum NF54 infected mouse assessed as reduction in parasitemia at 30 mg/kg, po measured on day 3 postinfection relative to control; assay type: functional; design: scale not given: the % may be the effect or the level left
[9] = system: Plasmodium berghei (mouse); assay: Antimalarial activity against chloroquine-sensitive Plasmodium berghei infected mouse assessed as cured animal at 30 mg/kg, po measured on day 30 postinfection
[10] = system: Plasmodium berghei (mouse); assay: Antimalarial activity against chloroquine-sensitive Plasmodium berghei infected mouse assessed as survival at 30 mg/kg, po
[11] = AUC (0 to 24 hrs) in mouse at 30 mg/kg, po by LC-MS analysis; assay type: ADME, organism-based; design: time < 24 hr, dose 30 mg/kg, route oral; conditions: plasma
[12] = Plasma concentration in Swiss outbred mouse at 30 mg/kg, po at 24 hrs by LC-MS analysis; assay type: ADME, organism-based; design: dose 30 mg/kg, route oral

c1cc([C@H]2CC[C@@]3(CC2)C[C@@]2(OO3)C3CC4CC(C3)CC2C4)ccc1OCCN1CCOCC1
IC50 (Plasmodium falciparum [1]): 370 nM | logD [2]: 5.56 | pKa [3]: 6.82 | logP [4]: 5.66 | microsomal CLint at 1 µM [5]: 28 µL/min/mg | IC50 (Plasmodium falciparum [6]): 1200 nM

CC(C)(N)CNC(=O)C[C@H]1CC[C@@]2(CC1)C[C@@]1(OO2)C2CC3CC(C2)CC1C3
half-life [7]: 60 min | IC50 (Plasmodium falciparum [1]): 170 nM | logD [2]: 1.83 | pKa [3]: 9.05 | logP [4]: 3.21 | microsomal CLint at 1 µM [5]: 12 µL/min/mg | IC50 (Plasmodium falciparum [6]): 440 nM

O[C@@H](c1cc(C(F)(F)F)nc2c(C(F)(F)F)cccc12)[C@H]1CCCCN1 (relative stereo) [(S,R)-MEFLOQUINE]
Activity (Plasmodium falciparum [8]): 99.6% | IC50 (Plasmodium falciparum [1]): 7.2 nM | Activity [9]: inactive | Survival [10]: 22 days | IC50 (Plasmodium falciparum [6]): 14 nM

C[C@H]1[C@H](OC(=O)CCC(=O)O)O[C@@H]2O[C@@]3(C)CC[C@H]4[C@H](C)CC[C@@H]1[C@@]24OO3 [ARTESUNATE]
Activity (Plasmodium falciparum [8]): 92% | Activity [9]: inactive | Survival [10]: 9 days

CC(C)(N)CNC(=O)CC1CCC2(CC1)OOC1(OO2)C2CC3CC(C2)CC1C3 (configuration not stated)
Activity (Plasmodium falciparum [8]): 99.5% | half-life [7]: 54.6 min | IC50 (Plasmodium falciparum [1]): 0.9 nM | AUC(0-t) at 24 h [11]: 13.5 µM·h | concentration at 24 h [12]: < 1 ng/mL | Activity [9]: inactive | logD [2]: 0.87 | Survival [10]: 9 days | pKa [3]: 9.05 | logP [4]: 2.26 | microsomal CLint at 1 µM [5]: 14 µL/min/mg | IC50 (Plasmodium falciparum [6]): 1.7 nM

CC(C)(N)CNC(=O)C[C@H]1CC[C@]2(CC1)OO[C@]1(O2)C2CC3CC(C2)CC1C3 [OZ277]
Activity (Plasmodium falciparum [8]): 99.9% | half-life [7]: 55.8 min | AUC(0-t) at 24 h [11]: 5.13 µM·h | concentration at 24 h [12]: < 1 ng/mL | Activity [9]: inactive | logD [2]: 0.69 | Survival [10]: 11 days | pKa [3]: 9.05 | logP [4]: 2.07 | microsomal CLint at 1 µM [5]: 17 µL/min/mg

CC(C)(N)CNC(=O)CC1CCC2(CC1)COC1(OO2)C2CC3CC(C2)CC1C3 (configuration not stated)
Activity (Plasmodium falciparum [8]): 99.1% | half-life [7]: 138 min | IC50 (Plasmodium falciparum [1]): 19 nM | AUC(0-t) at 24 h [11]: 22.4 µM·h | concentration at 24 h [12]: > 10 ng/mL | Activity [9]: inactive | logD [2]: 1.05 | Survival [10]: 15 days | pKa [3]: 9.05 | logP [4]: 2.44 | microsomal CLint at 1 µM [5]: < 7 µL/min/mg | IC50 (Plasmodium falciparum [6]): 29 nM

CCN(CC)CCCC(C)Nc1ccnc2cc(Cl)ccc12 (configuration not stated) [CHLOROQUINE]
Activity [9]: inactive | Survival [10]: 10 days

c1cc([C@H]2CC[C@]3(CC2)OO[C@]2(O3)C3CC4CC(C3)CC2C4)ccc1OCCN1CCOCC1 [ARTEFENOMEL]
Activity (Plasmodium falciparum [8]): >99.9% | IC50 (Plasmodium falciparum [1]): 2.8 nM | AUC(0-t) at 24 h [11]: 52.7 µM·h | concentration at 24 h [12]: > 200 ng/mL | Activity [9]: Active | logD [2]: 4.53 | Survival [10]: >30 days | pKa [3]: 6.81 | logP [4]: 4.63 | IC50 (Plasmodium falciparum [6]): 3.4 nM
